CC1(C)COP(=O)(C(Nc2ccccc2)c2ccccc2)OC1 (stereo not drawn)
Conditions | solubility (mole fraction)
in 1,2-dichloroethane, 278.65 K | 0.0102
in 1,2-dichloroethane, 283.65 K | 0.0119
in 1,2-dichloroethane, 288.65 K | 0.0143
in 1,2-dichloroethane, 293.25 K | 0.0169
in 1,2-dichloroethane, 298.15 K | 0.0191
in 1,2-dichloroethane, 303.15 K | 0.0229
in 1,2-dichloroethane, 308.25 K | 0.0265
in 1,2-dichloroethane, 313.15 K | 0.031
in 1,2-dichloroethane, 318.15 K | 0.035
in 1,2-dichloroethane, 323.15 K | 0.0395
in 1,2-dichloroethane, 328.15 K | 0.0437
in 1,2-dichloroethane, 333.15 K | 0.0526
in 1,4-dioxane, 285.65 K | 0.00609
in 1,4-dioxane, 288.65 K | 0.00661
in 1,4-dioxane, 293.65 K | 0.00739
in 1,4-dioxane, 298.15 K | 0.00887
in 1,4-dioxane, 303.15 K | 0.0103
in 1,4-dioxane, 308.15 K | 0.0121
in 1,4-dioxane, 313.15 K | 0.0139
in 1,4-dioxane, 318.15 K | 0.0162
in 1,4-dioxane, 323.15 K | 0.019
in 1,4-dioxane, 328.15 K | 0.023
in THF, 278.65 K | 0.00583
in THF, 283.65 K | 0.00648
in THF, 288.15 K | 0.00764
in THF, 293.25 K | 0.00858
in THF, 298.25 K | 0.0102
in THF, 303.15 K | 0.0117
in THF, 307.95 K | 0.0133
in THF, 313.15 K | 0.0152
in THF, 318.05 K | 0.0169
in THF, 322.65 K | 0.0187
in THF, 327.15 K | 0.0215
in THF, 332.65 K | 0.0237
in acetone, 278.15 K | 0.00244
in acetone, 283.75 K | 0.00314
in acetone, 288.15 K | 0.00432
in acetone, 293.75 K | 0.00578
in acetone, 298.65 K | 0.00728
in acetone, 302.75 K | 0.00898
in acetone, 307.85 K | 0.0112
in acetone, 311.75 K | 0.0138
in acetone, 317.15 K | 0.0171
in acetone, 321.25 K | 0.0186
in acetonitrile, 278 K | 0.00557
in acetonitrile, 285.65 K | 0.0068
in acetonitrile, 288.75 K | 0.00746
in acetonitrile, 293.75 K | 0.00887
in acetonitrile, 298.25 K | 0.0101
in acetonitrile, 303.25 K | 0.0119
in acetonitrile, 308.15 K | 0.0142
in acetonitrile, 312.75 K | 0.0161
in acetonitrile, 317.65 K | 0.0192
in acetonitrile, 322.45 K | 0.0218
in acetonitrile, 327.75 K | 0.0258
in acetonitrile, 335.35 K | 0.0328
in benzene, 278.65 K | 0.0011
in benzene, 283.65 K | 0.00131
in benzene, 288.15 K | 0.00162
in benzene, 293.25 K | 0.00201
in benzene, 298.25 K | 0.00245
in benzene, 303.15 K | 0.00301
in benzene, 307.95 K | 0.00381
in benzene, 313.15 K | 0.00464
in benzene, 318.05 K | 0.00519
in benzene, 322.65 K | 0.00634
in benzene, 327.15 K | 0.00711
in benzene, 332.65 K | 0.0093
in benzene, 337.55 K | 0.0107
in benzene, 343.15 K | 0.0123
in benzene, 347.5 K | 0.0149
in chloroform, 278.75 K | 0.0352
in chloroform, 283.65 K | 0.0382
in chloroform, 288.85 K | 0.0403
in chloroform, 293.95 K | 0.042
in chloroform, 298.35 K | 0.0444
in chloroform, 303.25 K | 0.0471
in chloroform, 307.75 K | 0.0492
in chloroform, 313.15 K | 0.0527
in chloroform, 317.95 K | 0.0548
in chloroform, 322.75 K | 0.0591
in chloroform, 327.95 K | 0.0646
in dichloromethane, 278.65 K | 0.00771
in dichloromethane, 283.25 K | 0.00994
in dichloromethane, 288.65 K | 0.012
in dichloromethane, 293.25 K | 0.0152
in dichloromethane, 298.85 K | 0.0189
in dichloromethane, 302.95 K | 0.0232
in dichloromethane, 308.35 K | 0.0274
in dichloromethane, 310.95 K | 0.0317
in ethyl acetate, 293.65 K | 0.00232
in ethyl acetate, 298.25 K | 0.00278
in ethyl acetate, 303.15 K | 0.00385
in ethyl acetate, 308.05 K | 0.0046
in ethyl acetate, 312.95 K | 0.00561
in ethyl acetate, 317.95 K | 0.00671
in ethyl acetate, 322.95 K | 0.00781
in ethyl acetate, 327.95 K | 0.00913
in ethyl acetate, 332.75 K | 0.0097
in ethyl acetate, 337.65 K | 0.0111
in isopropanol, 278.15 K | 0.0004
in isopropanol, 283.15 K | 0.0005
in isopropanol, 288.35 K | 0.00066
in isopropanol, 293.65 K | 0.0008
in isopropanol, 298.15 K | 0.00106
in isopropanol, 302.17 K | 0.00128
in isopropanol, 307.95 K | 0.00177
in isopropanol, 312.55 K | 0.00203
in isopropanol, 317.55 K | 0.00254
in isopropanol, 321.55 K | 0.00318
in isopropanol, 326.65 K | 0.00389
in isopropanol, 332.15 K | 0.00485
in isopropanol, 337.55 K | 0.00626
in isopropanol, 343.15 K | 0.00791
in isopropanol, 347.5 K | 0.00958
in methanol, 278.15 K | 0.00151
in methanol, 283.65 K | 0.002
in methanol, 289.15 K | 0.00246
in methanol, 293.65 K | 0.00312
in methanol, 298.15 K | 0.00367
in methanol, 303.15 K | 0.0045
in methanol, 307.95 K | 0.00541
in methanol, 313.15 K | 0.00662
in methanol, 318.15 K | 0.00796
in methanol, 323.15 K | 0.00984
in tetrachloromethane, 278.15 K | 0.00015
in tetrachloromethane, 283.15 K | 0.00019
in tetrachloromethane, 288.35 K | 0.00026
in tetrachloromethane, 293.65 K | 0.00034
in tetrachloromethane, 298.15 K | 0.00044
in tetrachloromethane, 302.17 K | 0.00051
in tetrachloromethane, 307.95 K | 0.00066
in tetrachloromethane, 312.55 K | 0.00085
in tetrachloromethane, 317.55 K | 0.00103
in tetrachloromethane, 321.55 K | 0.00121
in tetrachloromethane, 326.65 K | 0.00143
in tetrachloromethane, 332.15 K | 0.00203
in tetrachloromethane, 337.15 K | 0.00246
